The values that follow come from patent publication US20260345568A1, “INHIBITING MONOACYLGLYCEROL LIPASE (MAGL)” (PSY THERAPEUTICS, INC., priority 2023, published 2026).

Experiment [1] deals with T1, Flag-tagged MAGL enzyme (Homo sapiens, UniProt Q99685).
T1 sequence (Q99685 1-303): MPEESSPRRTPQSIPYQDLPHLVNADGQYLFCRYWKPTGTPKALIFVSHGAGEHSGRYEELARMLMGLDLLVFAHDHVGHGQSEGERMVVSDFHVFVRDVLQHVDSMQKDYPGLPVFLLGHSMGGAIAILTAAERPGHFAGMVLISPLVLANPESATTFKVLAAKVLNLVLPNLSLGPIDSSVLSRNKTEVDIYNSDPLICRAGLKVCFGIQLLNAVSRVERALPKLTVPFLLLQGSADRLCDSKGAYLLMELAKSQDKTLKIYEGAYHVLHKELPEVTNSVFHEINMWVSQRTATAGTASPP
As to the kind of experiment: Reversible MAGL inhibition, washout of immobilized Flag-tagged MAGL enzyme (Example C). The class given is biochemical. To be noted: for activity at 1 µM: 0.5 h, relative to control (no inhibitor before washout), immediately following a 30 minute washout, pre-washout 1 μM, read-out: % MAGL activity returning after washout; for degree to which MAGL enzymatic activity returned following washout: pre-washout compound concentration 1 μM. As for the experimental part:
The reversible mechanism of MAGL inhibition of a test compound of Formula (I) can be determined. Flag-tagged MAGL enzyme will be immobilized on anti-Flag beads Immobilized enzyme will be incubated+/−inhibitor at a dose that produces complete inhibition. Colorimetric substrate (4-NPA) will be added and the reaction monitored on a plate reader for 30 minutes to verify complete inhibition. Immobilized enzyme will then be washed thoroughly to remove the inhibitor, and fresh substrate will be added. The reaction will be monitored for an additional 30 minutes; returning enzymatic activity will indicate reversibility of inhibition.
For some test compounds, % activity returning after washout may be less than 100% if complete compound unbinding takes longer than 30 minutes.

Experiment [2] concerns the target T2, human MAGL (Homo sapiens, UniProt Q99685).
T2 construct: recombinant MAGL enzyme (aa 2-303 RBC, internal preparation)
T2 sequence (Q99685 2-303): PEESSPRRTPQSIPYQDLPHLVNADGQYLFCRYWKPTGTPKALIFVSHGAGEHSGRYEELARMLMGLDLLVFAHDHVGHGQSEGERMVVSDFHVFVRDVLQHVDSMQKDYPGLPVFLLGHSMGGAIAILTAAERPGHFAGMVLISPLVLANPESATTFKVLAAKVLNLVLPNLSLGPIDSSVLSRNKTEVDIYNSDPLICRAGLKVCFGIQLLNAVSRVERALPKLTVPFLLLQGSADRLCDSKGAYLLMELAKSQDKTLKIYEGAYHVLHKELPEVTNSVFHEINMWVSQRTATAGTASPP
As to the kind of experiment: MAGL inhibition potency, 4-nitrophenyl acetate (4NPA) hydrolysis, absorbance 405 nm (Example A). The class given is biochemical. As to conditions: Method 12: Reaction Biology MAGL enzyme, 15 nM; 4NPA substrate; read-out: MAGL Potency (Detection Method). An excerpt:
The potency of certain compounds for inhibiting MAGL were obtained using the following assays.
The monoacylglycerol lipase inhibitor screening assay kit from Cayman Chemical was used to measure the MAGL potency for the compounds in Tables A-1, A-2, A-3.
Cayman's Monoacylglycerol Lipase Inhibitor Screening Assay provides a method for screening human MAGL inhibitors. MAGL hydrolyzes 4-nitrophenylacetate resulting in a yellow product, 4-nitrophenol, with an absorbance of 405-412 nm.
MAGL Inhibition was measured by the following assay. Monoacylglycerol Lipase (MAGL) inhibition was measured using recombinant MAGL enzyme (aa 2-303 RBC, internal preparation) and the substrate 4-Nitrophenyl acetate (4NPA) (Sigma-Aldrich, N8130). Hydrolysis of the substrate in the presence of the enzyme was measured by absorbance at 405 nm. 10 μL of assay buffer (10 mM Tris pH 7.5, 1 mM EDTA, 0.9% DMSO) was added to a black 384-well non-binding plate with clear bottom (Greiner, 781906) for each reaction. Compounds were dispensed using an acoustic liquid handler (Echo, Beckman) at 45 nL (0.1% DMSO). Test compounds and control for MAGL inhibitor JZL-184 (Caymen Chemical, 13158) were tested in 10-concentration IC50 mode with 3-fold serial dilution at a starting concentration of […]. DMSO control wells were included for reference. A 10.8 nM (1.8×) MAGL mix in assay buffer was prepared, with 25 μL added to each reaction well, for a final assay concentration of […]. No enzyme wells received 25 μL of buffer. Plate was incubated at room temperature for 30 minutes. 35 mM solution of 4NPA in methanol was prepared daily A 4.5×4NPA substrate solution was prepared in assay buffer and 10 μL was added to each reaction well, for a final assay concentration of 0.25 mM. Plate was spun for 1 minute at 1000 rpm before measuring absorbance using a CLARIOstar plate reader (BMG Labtech). A kinetic reading at 405 nm was done every minute for 30 minutes. Data was analyzed using the linear slope of the reaction progress curve and the average of the no-enzyme wells (background) was subtracted from the data. The background-subtracted slope data was converted to % activity using the average of wells with enzyme and DMSO vehicle. IC50s were calculated using GraphPad software (Sigmoidal dose response, variable slope equation).
Table 8 provides potency measurements of MAGL inhibition measured using the Potency Assay of Example A above, with the following modifications described in Table C.
The number after each letter for potency measurement value indicates the Method from Table C that was used to obtain that measurement value (e.g. “A(1)” indicates an IC50 measurement of <50 nM obtained from the Method 1 of Example A in Table C).

Experiment [3] has as its target T3, human recombinant FAAH (Homo sapiens, UniProt O00519).
T3 construct: purchased Cayman Chemical 700302 (enzyme); kit Item No. 10005196
T3 sequence (O00519 1-579): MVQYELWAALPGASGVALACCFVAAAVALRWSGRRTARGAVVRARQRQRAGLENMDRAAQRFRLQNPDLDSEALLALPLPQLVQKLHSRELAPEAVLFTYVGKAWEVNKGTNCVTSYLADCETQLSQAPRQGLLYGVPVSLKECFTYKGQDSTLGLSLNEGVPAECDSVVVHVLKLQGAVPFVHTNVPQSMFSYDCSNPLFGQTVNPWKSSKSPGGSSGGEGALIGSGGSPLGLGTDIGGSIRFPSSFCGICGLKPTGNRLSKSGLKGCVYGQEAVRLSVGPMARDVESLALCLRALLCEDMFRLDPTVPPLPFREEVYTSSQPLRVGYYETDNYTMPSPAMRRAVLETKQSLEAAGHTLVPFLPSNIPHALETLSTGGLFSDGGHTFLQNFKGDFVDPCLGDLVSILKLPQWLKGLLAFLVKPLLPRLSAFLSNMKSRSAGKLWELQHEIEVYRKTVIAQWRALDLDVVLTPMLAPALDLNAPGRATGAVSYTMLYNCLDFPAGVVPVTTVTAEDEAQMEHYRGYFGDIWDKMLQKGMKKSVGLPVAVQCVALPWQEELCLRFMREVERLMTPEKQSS
As to the kind of experiment: FAAH counter-screen, AMC arachidonoyl amide substrate (Example B). The class given is biochemical. To be noted: Method B; 20 uM AAMCA substrate. As for the experimental part:
Comparative compound potency at FAAH can be obtained with the following assay.
MAGL inhibitor compounds were also counter-screened for FAAH inhibition potency using the following assay. Assessment of FAAH inhibition was performed using Fatty Acid Amide Hydrolase Inhibitor Screening Assay Kit (Cayman Item No. 10005196) following manufacture's instruction with some modifications. The kit utilizes human recombinant FAAH and the fluorescent substrate, AMC Arachidonoyl amide (AAMCA). […] 300 nL or 30 nL of test compounds were delivered into a 384-well black plate (Corning, 3573) using a Labcyte Echo, followed by addition of 15 μL of FAAH enzyme (Cayman, 700302) in assay buffer. After a 5-minute pre-incubation at room temperature, 10 μL of AAMCA was added in assay buffer to start the reaction. Final concentration of FAAH enzyme is not specified and AAMCA substrate was used at the 20 uM. After these dilutions, the final concentration of the test compounds ranged from 100 μM to 5.08 nM or 10 μM down to 0.508 nM. The reaction was allowed to progress for 60 minutes, while the plate was read on an Envision plate reader at an Ex/Em of 350/460 nm with readings every minute. The data was analyzed in Microsoft Excel, using the slope between 30 and 59 minutes. The average of the no-enzyme wells (background) was subtracted from the data. The background-subtracted slope data was converted to % activity using the average of wells with enzyme and DMSO vehicle. IC50 values were calculated using GraphPad software (Sigmoidal dose response, variable slope equation).
Compounds listed in Table D were tested in the FAAH Counter-screen of Example B.
(In general: The purpose of a counterscreen is to sort out artefacts and off-target activity.)

The subject of experiment [4] is brain and peripheral 2-AG; brain AA. To be noted: irreversible MAGL inhibition; cited from earlier work.

Take `O=C(c1cc(O)ccc1F)N1CC2(CC(n3nc(C(F)(F)F)cc3-c3ccccn3)C2)C1` [Compound 5, (2-fluoro-5-hydroxyphenyl){6-[5-(2-pyridyl)-3-(trifluoromethyl)-1-pyrazolyl]-2-aza-2-spiro[3.3]heptyl}methanone]: in experiment [1], the activity at 1 µM was > 50% and the degree to which MAGL enzymatic activity returned following washout stood at 123%. In experiment [2], the IC50 is < 50 nM. Moreover, in experiment [3], the IC50 was > 10 µM.

For the molecule `O=C(c1cc(O)ccc1F)N1CC2(CC(n3nc(-c4ccc(=O)[nH]c4)cc3C(F)(F)F)C2)C1` [Compound 10, 5-(1-{2-(2-fluoro-5-hydroxybenzoyl)-2-aza-6-spiro[3.3]heptyl}-5-(trifluoromethyl)-3-pyrazolyl)-2(1H)-pyridinone], the activity at 1 µM in experiment [1] is > 50%. Further, the degree to which MAGL enzymatic activity returned following washout in experiment [1] was determined as 122%. Also, the IC50 in experiment [2] is < 50 nM; in experiment [3], > 10 µM.

For the molecule `O=C(c1cc(O)ccc1F)N1CC2(CC(n3nc(-c4ccc[nH]c4=O)cc3C(F)(F)F)C2)C1` [Compound 12, 3-(1-{2-(2-fluoro-5-hydroxybenzoyl)-2-aza-6-spiro[3.3]heptyl}-5-(trifluoromethyl)-3-pyrazolyl)-2(1H)-pyridinone], the activity at 1 µM in experiment [1] is > 50%. In addition, the degree to which MAGL enzymatic activity returned following washout in experiment [1] stood at 135%. The IC50 in experiment [2] was < 50 nM; in experiment [3], > 10 µM.

`COc1ncccc1-c1cc(C(F)(F)F)n(C2CC3(C2)CN(C(=O)c2cc(O)ccc2F)C3)n1` [Compound 15, (2-fluoro-5-hydroxyphenyl)(6-(3-(2-methoxypyridin-3-yl)-5-(trifluoromethyl)-1H1-pyrazol-1-yl)-2-azaspiro[3.3]heptan-2-yl)methanone]: in experiment [1], the activity at 1 µM was > 50% and the degree to which MAGL enzymatic activity returned following washout is 99%. The IC50 in experiment [2] is < 50 nM. The IC50 in experiment [3] was > 10 µM.

`COc1ccc(-c2cc(C(F)(F)F)n(C3CC4(C3)CN(C(=O)c3cc(O)ccc3F)C4)n2)cn1` [Compound 17, (2-fluoro-5-hydroxyphenyl) (6-(3-(6-methoxypyridin-3-yl)-5-(trifluoromethyl)-1H-pyrazol-1-yl)-2-azaspiro [3.3]heptan-2-yl) methanone]: in experiment [1], the activity at 1 µM is > 50% and the degree to which MAGL enzymatic activity returned following washout worked out at 89%. In addition, the IC50 in experiment [2] is < 50 nM. Also, the IC50 in experiment [3] is > 10 µM.

As for `O=C(Oc1ccc([N+](=O)[O-])cc1)N1CCC(C(O)(c2ccc3c(c2)OCO3)c2ccc3c(c2)OCO3)CC1` [JZL-184, reference compound], in experiment [4], the “brain AA” value is listed as “reduce”; the “brain and peripheral 2-AG” value was “increase”. For the same molecule, in experiment [1], the activity at 1 µM is < 1% and the “degree to which MAGL enzymatic activity returned following washout” value is on record as “complete lack of return of MAGL enzymatic activity”.
